Measured values as given in patent US20260184710A1, “CASITAS B-LINEAGE LYMPHOMA PROTOONCOGENE B (CBL-B) DEGRADING COMPOUNDS AND ASSOCIATED METHODS OF USE” (Arvinas Operations, Inc., priority 2022, published 2026).

Target: T1, Cbl-b (Homo sapiens, UniProt Q13191)
T1 construct: Cbl-b-HiBit KI Jurkat Cells were purchased from Promega; host or cells: Cbl-b-HiBiT knock-in Jurkat cells
Experiment: Cbl-b Degradation Method B (Nano-Glo HiBiT lytic detection)
Assay type: cell-based
Conditions: Cbl-b-HiBit KI Jurkat Cells, incubated at least 6-24 hours; for DC50: half maximal degradation, read-out: Cbl-b Degredation Method B IC50; for Dmax: maximum degradation observed, read-out: Cbl-b Degredation Method B Dmax (%)
Procedure, shortened: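 An 11-point, 3-fold compound dilution was applied for 6-24 hours to Jurkat cells carrying HiBiT-tagged endogenous Cbl-b. Lytic HiBiT luminescence quantified residual protein. Outputs are DC50 and Dmax relative to DMSO control.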

T1 sequence (Q13191 whole entry): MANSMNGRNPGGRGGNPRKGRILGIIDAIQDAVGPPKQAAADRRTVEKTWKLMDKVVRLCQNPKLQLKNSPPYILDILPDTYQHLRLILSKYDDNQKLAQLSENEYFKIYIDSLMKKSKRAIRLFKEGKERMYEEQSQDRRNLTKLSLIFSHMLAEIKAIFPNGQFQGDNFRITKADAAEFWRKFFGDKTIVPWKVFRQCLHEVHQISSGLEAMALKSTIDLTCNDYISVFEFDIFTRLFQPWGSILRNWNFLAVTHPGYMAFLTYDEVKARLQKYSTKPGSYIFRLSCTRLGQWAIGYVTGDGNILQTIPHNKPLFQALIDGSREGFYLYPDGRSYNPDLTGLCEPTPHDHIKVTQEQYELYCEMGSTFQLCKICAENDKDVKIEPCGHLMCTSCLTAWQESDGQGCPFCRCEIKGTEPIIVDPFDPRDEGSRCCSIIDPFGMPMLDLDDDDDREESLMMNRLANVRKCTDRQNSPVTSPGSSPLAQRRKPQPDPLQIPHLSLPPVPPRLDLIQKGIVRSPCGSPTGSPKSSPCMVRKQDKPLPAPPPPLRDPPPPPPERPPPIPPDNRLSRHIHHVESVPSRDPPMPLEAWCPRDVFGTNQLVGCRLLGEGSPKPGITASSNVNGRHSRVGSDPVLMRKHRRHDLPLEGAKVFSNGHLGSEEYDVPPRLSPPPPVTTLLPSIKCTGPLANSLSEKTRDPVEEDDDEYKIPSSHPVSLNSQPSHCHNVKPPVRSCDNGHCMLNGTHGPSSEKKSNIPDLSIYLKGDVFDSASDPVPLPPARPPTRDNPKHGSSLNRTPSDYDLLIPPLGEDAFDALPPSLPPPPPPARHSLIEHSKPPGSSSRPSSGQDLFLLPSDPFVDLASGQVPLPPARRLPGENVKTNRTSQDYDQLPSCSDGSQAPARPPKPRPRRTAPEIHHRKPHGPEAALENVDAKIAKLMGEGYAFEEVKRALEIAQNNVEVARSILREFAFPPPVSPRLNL

CC(C)n1c(=O)n(C2CCC(=O)NC2=O)c2ccc(N3CCN(Cc4ccc(-c5cc6c(c(C(F)(F)F)c5)CN(c5cccc([C@]7(Cc8nncn8C)C[C@@H](C#N)C7)c5)C6=O)cc4)CC3)cc21 (stereo partly drawn) [Example 295, (1r,3r)-3-(3-{6-[4-({4-[1-(2,6-dioxopiperidin-3-yl)-2-oxo-3-(propan-2-yl)-2,3-dihydro-1H-1,3-benzodiazol-5-yl]piperazin-1-yl}methyl)phenyl]-1-oxo-4-(trifluoromethyl)-2,3-dihydro-1H-isoindol-2-yl}phenyl)-3-[(4-methyl-4H-1,2,4-triazol-3-yl)methyl]cyclobutane-1-carbonitrile]
DC50: > 500 nM

Cc1cc(N2CCC(O[C@H]3CC[C@@H](CN4CCN(C[C@H]5CCCN(Cc6cc7c(c(C(F)(F)F)c6)CN(c6cccc(C8(Cc9nncn9C)COC8)c6)C7=O)C5)C(C)(C)C4)CC3)CC2)c(F)c2c1C(=O)N(C1CCC(=O)NC1=O)C2 (stereo partly drawn) [Example 269, 3-[4-fluoro-7-methyl-1-oxo-5-(4-{[(1r,4r)-4-[(3,3-dimethyl-4-{[(3S)-1-{[2-(3-{3-[(4-methyl-4H-1,2,4-triazol-3-yl)methyl]oxetan-3-yl}phenyl)-3-oxo-7-(trifluoromethyl)-2,3-dihydro-1H-isoindol-5-yl]methyl}piperidin-3-yl]methyl}piperazin-1-yl)methyl]cyclohexyl]oxy}piperidin-1-yl)-2,3-dihydro-1H-isoindol-2-yl]piperidine-2,6-dione]
DC50: < 5 nM | Dmax: > 70%

Cn1cnnc1CC1(c2cccc(N3Cc4c(cc(CN5CCC(Cn6cccc(CN7CCC(=O)NC7=O)c6=O)CC5)cc4C(F)(F)F)C3=O)c2)COC1 [Example 55, 1-({1-[(1-{[2-(3-{3-[(4-methyl-4H-1,2,4-triazol-3-yl)methyl]oxetan-3-yl}phenyl)-3-oxo-7-(trifluoromethyl)-2,3-dihydro-1H-isoindol-5-yl]methyl}piperidin-4-yl)methyl]-2-oxo-1,2-dihydropyridin-3-yl}methyl)-1,3-diazinane-2,4-dione]
DC50: > 500 nM

CC1c2nc(N3CCC(O[C@H]4CC[C@H](CN5C[C@H]6C[C@@H]5CN6Cc5cc6c(c(C(F)(F)F)c5)CN(c5cccc(C7(Cc8nncn8C)CC7)c5)C6=O)CC4)CC3)ccc2C(=O)N1C1CCC(=O)NC1=O (stereo partly drawn) [Example 222, 3-[7-methyl-5-oxo-2-(4-{[(1r,4r)-4-{[(1R,4R)-5-{[2-(3-{1-[(4-methyl-4H-1,2,4-triazol-3-yl)methyl]cyclopropyl}phenyl)-3-oxo-7-(trifluoromethyl)-2,3-dihydro-1H-isoindol-5-yl]methyl}-2,5-diazabicyclo[2.2.1]heptan-2-yl]methyl}cyclohexyl]oxy}piperidin-1-yl)-5H,6H,7H-pyrrolo[3,4-b]pyridin-6-yl]piperidine-2,6-dione]
DC50: < 5 nM | Dmax: 35 to 70%

Cn1cnnc1CC1(c2cccc(N3Cc4c(cc(CN5CCN(c6ccc(C(=O)NC7CCC(=O)NC7=O)c(F)c6)CC5)cc4C(F)(F)F)C3=O)c2)COC1 (stereo not drawn) [Example 35, N-(2,6-dioxopiperidin-3-yl)-2-fluoro-4-(4-{[2-(3-{3-[(4-methyl-4H-1,2,4-triazol-3-yl)methyl]oxetan-3-yl}phenyl)-3-oxo-7-(trifluoromethyl)-2,3-dihydro-1H-isoindol-5-yl]methyl}piperazin-1-yl)benzamide]
DC50: > 500 nM

Cn1cnnc1CC1(c2cccc(N3Cc4c(cc(CN5CCC6(CC5)CCN(CC5CCN(c7ccc8c(c7)C(=O)N(C7CCC(=O)NC7=O)C8=O)CC5)CC6)cc4C(F)(F)F)C3=O)c2)COC1 (stereo not drawn) [Example 45, 2-(2,6-dioxopiperidin-3-yl)-5-{4-[(9-{[2-(3-{3-[(4-methyl-4H-1,2,4-triazol-3-yl)methyl]oxetan-3-yl}phenyl)-3-oxo-7-(trifluoromethyl)-2,3-dihydro-1H-isoindol-5-yl]methyl}-3,9-diazaspiro[5.5]undecan-3-yl)methyl]piperidin-1-yl}-2,3-dihydro-1H-isoindole-1,3-dione]
DC50: > 500 nM

CC(C)n1c(=O)n(C2CCC(=O)NC2=O)c2ccc(N3CCC(CN4CCC5(CC4)CN(c4cc6c(c(C(F)(F)F)c4)CN(c4cccc([C@]7(Cc8nncn8C)C[C@@H](C#N)C7)c4)C6=O)C5)CC3)cc21 (stereo partly drawn) [Example 192, (1r,3r)-3-(3-{6-[7-({1-[1-(2,6-dioxopiperidin-3-yl)-2-oxo-3-(propan-2-yl)-2,3-dihydro-1H-1,3-benzodiazol-5-yl]piperidin-4-yl}methyl)-2,7-diazaspiro[3.5]nonan-2-yl]-1-oxo-4-(trifluoromethyl)-2,3-dihydro-1H-isoindol-2-yl}phenyl)-3-[(4-methyl-4H-1,2,4-triazol-3-yl)methyl]cyclobutane-1-carbonitrile]
DC50: < 5 nM | Dmax: 35 to 70%

Cn1cnnc1CC1(c2cccc(N3Cc4c(cc(CN5CCC6(CC5)CN(c5cccc7c5CN(C5CCC(=O)NC5=O)C7=O)C6)cc4C(F)(F)F)C3=O)c2)COC1 (stereo not drawn) [Example 42, 3-[4-(7-{[2-(3-{3-[(4-methyl-4H-1,2,4-triazol-3-yl)methyl]oxetan-3-yl}phenyl)-3-oxo-7-(trifluoromethyl)-2,3-dihydro-1H-isoindol-5-yl]methyl}-2,7-diazaspiro[3.5]nonan-2-yl)-1-oxo-2,3-dihydro-1H-isoindol-2-yl]piperidine-2,6-dione]
DC50: > 500 nM

COc1cc(N2CCN(CC3CCN(Cc4cc5c(c(C(F)(F)F)c4)CN(c4cccc(C6(Cc7nncn7C)COC6)c4)C5=O)CC3)CC2)cc2c1C(=O)N(C1CCC(=O)NC1=O)C2=O (stereo not drawn) [Example 51, 2-(2,6-dioxopiperidin-3-yl)-4-methoxy-6-{4-[(1-{[2-(3-{3-[(4-methyl-4H-1,2,4-triazol-3-yl)methyl]oxetan-3-yl}phenyl)-3-oxo-7-(trifluoromethyl)-2,3-dihydro-1H-isoindol-5-yl]methyl}piperidin-4-yl)methyl]piperazin-1-yl}-2,3-dihydro-1H-isoindole-1,3-dione]
DC50: > 500 nM

Cn1cnnc1CC1(c2cccc(N3Cc4c(cc(CN5CC(CN6CCN(C7CCN(c8ccc9c(c8)C(=O)N(C8CCC(=O)NC8=O)C9=O)CC7)CC6)C5)cc4C(F)(F)F)C3=O)c2)COC1 (stereo not drawn) [Example 67, 2-(2,6-dioxopiperidin-3-yl)-5-(4-{4-[(1-{[2-(3-{3-[(4-methyl-4H-1,2,4-triazol-3-yl)methyl]oxetan-3-yl}phenyl)-3-oxo-7-(trifluoromethyl)-2,3-dihydro-1H-isoindol-5-yl]methyl}azetidin-3-yl)methyl]piperazin-1-yl}piperidin-1-yl)-2,3-dihydro-1H-isoindole-1,3-dione]
DC50: > 500 nM

Cc1cc(N2CCC(CN3CCC4(CC3)CN(c3cc5c(c(C(F)(F)F)c3)CN(c3cccc(C6(Cc7nncn7C)COC6)c3)C5=O)C4)CC2)c(F)c2c1C(=O)N(C1CCC(=O)NC1=O)C2 (stereo not drawn) [Example 12, 3-{4-fluoro-7-methyl-5-[4-({2-[2-(3-{3-[(4-methyl-4H-1,2,4-triazol-3-yl)methyl]oxetan-3-yl}phenyl)-3-oxo-7-(trifluoromethyl)-2,3-dihydro-1H-isoindol-5-yl]-2,7-diazaspiro [3.5]nonan-7-yl}methyl)piperidin-1-yl]-1-oxo-2,3-dihydro-1H-isoindol-2-yl}piperidine-2,6-dione]
DC50: < 5 nM | Dmax: > 70%
